From ChEMBL document CHEMBL5465560, “Selectivity Literature for EUbOPEN Chemogenomic Library” (2024)

Assays:
[1] = molecular target: T1, Mitogen-activated protein kinase kinase kinase 5 (Homo sapiens) (UniProt Q99683); assay: Selectivity interaction (KinomeScan (DiscoverX)) EUB0000666a MAP3K5; details: at 10 µM
T1 sequence (whole entry): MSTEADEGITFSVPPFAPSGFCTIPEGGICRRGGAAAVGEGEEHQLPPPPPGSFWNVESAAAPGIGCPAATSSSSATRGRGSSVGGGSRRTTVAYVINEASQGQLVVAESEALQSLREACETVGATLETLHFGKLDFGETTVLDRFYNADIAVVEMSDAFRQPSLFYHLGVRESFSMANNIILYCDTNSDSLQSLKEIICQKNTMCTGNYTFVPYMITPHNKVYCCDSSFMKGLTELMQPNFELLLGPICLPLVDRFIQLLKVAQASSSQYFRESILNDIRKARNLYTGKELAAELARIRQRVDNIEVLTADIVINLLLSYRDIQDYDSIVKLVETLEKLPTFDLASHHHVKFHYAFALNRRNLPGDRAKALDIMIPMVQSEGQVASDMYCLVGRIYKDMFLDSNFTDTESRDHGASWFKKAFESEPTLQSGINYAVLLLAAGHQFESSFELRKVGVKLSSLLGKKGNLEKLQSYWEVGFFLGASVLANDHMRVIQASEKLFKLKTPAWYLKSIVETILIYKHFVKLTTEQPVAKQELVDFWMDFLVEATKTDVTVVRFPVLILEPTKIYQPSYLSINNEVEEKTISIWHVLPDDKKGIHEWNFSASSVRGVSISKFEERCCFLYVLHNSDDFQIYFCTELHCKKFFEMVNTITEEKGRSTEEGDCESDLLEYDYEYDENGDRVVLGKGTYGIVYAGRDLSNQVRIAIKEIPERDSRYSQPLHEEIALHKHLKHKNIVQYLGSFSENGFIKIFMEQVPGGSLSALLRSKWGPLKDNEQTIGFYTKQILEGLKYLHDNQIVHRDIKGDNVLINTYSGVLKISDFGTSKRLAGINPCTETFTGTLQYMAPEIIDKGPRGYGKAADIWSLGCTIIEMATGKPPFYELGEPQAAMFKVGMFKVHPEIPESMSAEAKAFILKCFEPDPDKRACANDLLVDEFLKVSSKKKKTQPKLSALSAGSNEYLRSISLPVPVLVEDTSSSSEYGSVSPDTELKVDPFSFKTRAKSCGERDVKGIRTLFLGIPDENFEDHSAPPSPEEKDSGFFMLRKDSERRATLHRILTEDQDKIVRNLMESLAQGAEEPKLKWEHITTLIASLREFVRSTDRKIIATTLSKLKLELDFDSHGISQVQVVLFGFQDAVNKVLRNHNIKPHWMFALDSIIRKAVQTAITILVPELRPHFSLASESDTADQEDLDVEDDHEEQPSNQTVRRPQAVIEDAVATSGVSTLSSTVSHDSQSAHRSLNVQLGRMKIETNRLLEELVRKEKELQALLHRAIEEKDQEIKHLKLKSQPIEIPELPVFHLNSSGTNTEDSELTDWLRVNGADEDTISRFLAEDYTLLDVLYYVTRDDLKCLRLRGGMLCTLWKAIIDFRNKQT

[2] = molecular target: Tyrosine-protein kinase Fyn (Homo sapiens) (UniProt P06241); assay: Selectivity interaction (KinomeScan (DiscoverX)) EUB0000607a FYN; details: at 10 µM
[3] = molecular target: T2, Serine/threonine-protein kinase Nek3 (Homo sapiens) (UniProt P51956); assay: Selectivity interaction (ProQinase) EUB0000171b NEK3
T2 sequence (whole entry): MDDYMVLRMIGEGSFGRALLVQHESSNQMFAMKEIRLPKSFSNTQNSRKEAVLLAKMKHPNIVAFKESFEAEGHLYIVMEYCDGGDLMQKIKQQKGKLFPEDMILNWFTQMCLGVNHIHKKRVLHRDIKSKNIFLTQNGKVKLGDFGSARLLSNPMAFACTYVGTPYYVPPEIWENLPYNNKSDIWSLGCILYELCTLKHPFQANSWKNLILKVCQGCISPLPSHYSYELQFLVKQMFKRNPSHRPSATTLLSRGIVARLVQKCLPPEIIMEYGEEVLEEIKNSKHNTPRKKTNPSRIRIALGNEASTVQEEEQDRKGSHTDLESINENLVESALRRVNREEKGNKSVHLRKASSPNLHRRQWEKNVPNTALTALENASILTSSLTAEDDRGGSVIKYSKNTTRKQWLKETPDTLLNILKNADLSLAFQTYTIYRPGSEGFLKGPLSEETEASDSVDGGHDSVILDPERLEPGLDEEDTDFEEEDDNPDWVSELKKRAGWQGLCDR

[4] = molecular target: Interleukin-1 receptor-associated kinase 1 (Homo sapiens) (UniProt P51617); assay: Selectivity interaction (KinomeScan (DiscoverX)) EUB0001049a IRAK1; details: at 1 µM
[5] = molecular target: T3, Serine/threonine-protein kinase Sgk2 (Homo sapiens) (UniProt Q9HBY8); assay: Selectivity interaction (Kinase screening (Nanosyn)) EUB0000604a SGK2
T3 sequence (whole entry): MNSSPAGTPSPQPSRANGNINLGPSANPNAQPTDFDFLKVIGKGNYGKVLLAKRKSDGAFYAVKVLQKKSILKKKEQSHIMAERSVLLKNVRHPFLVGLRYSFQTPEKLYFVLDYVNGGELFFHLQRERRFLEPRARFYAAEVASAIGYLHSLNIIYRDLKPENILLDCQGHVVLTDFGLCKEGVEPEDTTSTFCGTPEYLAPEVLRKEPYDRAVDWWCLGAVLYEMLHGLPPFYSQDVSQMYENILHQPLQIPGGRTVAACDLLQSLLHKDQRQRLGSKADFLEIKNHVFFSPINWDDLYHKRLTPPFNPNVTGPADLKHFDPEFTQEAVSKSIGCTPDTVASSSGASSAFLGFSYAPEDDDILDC

[6] = molecular target: Epithelial discoidin domain-containing receptor 1 (Homo sapiens) (UniProt Q08345); assay: Selectivity interaction (KinomeScan (DiscoverX)) EUB0000045b DDR1
[7] = molecular target: Non-receptor tyrosine-protein kinase TYK2 (Homo sapiens, UniProt P29597); assay: Selectivity interaction (KinomeScan (DiscoverX)) EUB0000618a TYK2; details: at 10 µM
[8] = molecular target: Serine/threonine-protein kinase PRP4 homolog (Homo sapiens) (UniProt Q13523); assay: Selectivity interaction (KinomeScan (DiscoverX)) EUB0000618a PRPF4; details: at 10 µM
Chain of Serine/threonine-protein kinase PRP4 homolog (Homo sapiens) (Q13523 whole entry): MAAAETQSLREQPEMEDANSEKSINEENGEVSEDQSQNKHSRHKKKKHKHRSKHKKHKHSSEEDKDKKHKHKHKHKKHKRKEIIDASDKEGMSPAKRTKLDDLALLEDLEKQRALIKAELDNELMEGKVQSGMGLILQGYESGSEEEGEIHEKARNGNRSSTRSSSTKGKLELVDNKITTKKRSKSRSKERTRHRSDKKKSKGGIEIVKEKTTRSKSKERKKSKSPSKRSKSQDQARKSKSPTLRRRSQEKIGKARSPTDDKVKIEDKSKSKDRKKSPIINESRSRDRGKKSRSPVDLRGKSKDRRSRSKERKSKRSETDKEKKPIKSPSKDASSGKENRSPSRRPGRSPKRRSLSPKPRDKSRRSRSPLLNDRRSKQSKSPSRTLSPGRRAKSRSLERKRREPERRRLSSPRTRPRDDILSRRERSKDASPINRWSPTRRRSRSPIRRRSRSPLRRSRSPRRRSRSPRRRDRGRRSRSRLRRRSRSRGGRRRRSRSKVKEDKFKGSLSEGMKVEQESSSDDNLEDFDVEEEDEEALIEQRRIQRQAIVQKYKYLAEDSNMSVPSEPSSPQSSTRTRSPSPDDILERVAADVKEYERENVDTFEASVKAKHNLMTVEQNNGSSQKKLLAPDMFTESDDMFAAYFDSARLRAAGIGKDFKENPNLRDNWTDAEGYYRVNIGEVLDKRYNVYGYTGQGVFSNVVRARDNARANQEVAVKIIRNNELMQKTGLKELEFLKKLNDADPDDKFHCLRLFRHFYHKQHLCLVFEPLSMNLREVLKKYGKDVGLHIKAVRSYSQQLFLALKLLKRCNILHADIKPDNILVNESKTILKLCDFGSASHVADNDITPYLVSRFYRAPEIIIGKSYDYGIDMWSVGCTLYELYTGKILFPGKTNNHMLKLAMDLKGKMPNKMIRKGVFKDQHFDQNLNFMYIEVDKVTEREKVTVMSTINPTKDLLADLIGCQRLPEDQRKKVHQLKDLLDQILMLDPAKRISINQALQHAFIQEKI

Chain of Epithelial discoidin domain-containing receptor 1 (Homo sapiens) (Q08345 whole entry, the tested form may be a part): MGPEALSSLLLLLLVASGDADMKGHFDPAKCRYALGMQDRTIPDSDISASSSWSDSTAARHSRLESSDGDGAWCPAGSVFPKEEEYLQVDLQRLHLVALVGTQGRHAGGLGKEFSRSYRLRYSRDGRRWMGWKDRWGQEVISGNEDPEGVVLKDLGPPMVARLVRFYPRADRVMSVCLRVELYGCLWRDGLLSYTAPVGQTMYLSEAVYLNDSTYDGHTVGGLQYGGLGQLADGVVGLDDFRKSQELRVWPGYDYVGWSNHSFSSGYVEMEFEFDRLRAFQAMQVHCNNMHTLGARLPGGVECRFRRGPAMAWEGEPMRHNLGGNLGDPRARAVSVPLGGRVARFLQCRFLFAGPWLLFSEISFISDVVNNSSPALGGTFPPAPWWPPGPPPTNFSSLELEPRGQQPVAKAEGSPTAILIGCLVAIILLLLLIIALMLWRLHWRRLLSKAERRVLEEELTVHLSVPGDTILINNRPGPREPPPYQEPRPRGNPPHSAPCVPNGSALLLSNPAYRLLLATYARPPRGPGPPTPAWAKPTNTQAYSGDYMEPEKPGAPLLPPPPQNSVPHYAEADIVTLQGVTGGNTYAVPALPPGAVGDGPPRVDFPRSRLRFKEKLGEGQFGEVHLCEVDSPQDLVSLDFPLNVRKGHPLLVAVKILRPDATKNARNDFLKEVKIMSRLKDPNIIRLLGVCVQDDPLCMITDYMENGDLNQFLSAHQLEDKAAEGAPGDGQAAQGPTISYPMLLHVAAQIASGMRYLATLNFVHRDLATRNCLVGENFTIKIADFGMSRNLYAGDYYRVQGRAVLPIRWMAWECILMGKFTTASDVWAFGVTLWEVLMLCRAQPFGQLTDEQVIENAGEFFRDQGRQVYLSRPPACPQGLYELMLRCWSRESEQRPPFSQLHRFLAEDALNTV
Chain of Non-receptor tyrosine-protein kinase TYK2 (P29597 whole entry): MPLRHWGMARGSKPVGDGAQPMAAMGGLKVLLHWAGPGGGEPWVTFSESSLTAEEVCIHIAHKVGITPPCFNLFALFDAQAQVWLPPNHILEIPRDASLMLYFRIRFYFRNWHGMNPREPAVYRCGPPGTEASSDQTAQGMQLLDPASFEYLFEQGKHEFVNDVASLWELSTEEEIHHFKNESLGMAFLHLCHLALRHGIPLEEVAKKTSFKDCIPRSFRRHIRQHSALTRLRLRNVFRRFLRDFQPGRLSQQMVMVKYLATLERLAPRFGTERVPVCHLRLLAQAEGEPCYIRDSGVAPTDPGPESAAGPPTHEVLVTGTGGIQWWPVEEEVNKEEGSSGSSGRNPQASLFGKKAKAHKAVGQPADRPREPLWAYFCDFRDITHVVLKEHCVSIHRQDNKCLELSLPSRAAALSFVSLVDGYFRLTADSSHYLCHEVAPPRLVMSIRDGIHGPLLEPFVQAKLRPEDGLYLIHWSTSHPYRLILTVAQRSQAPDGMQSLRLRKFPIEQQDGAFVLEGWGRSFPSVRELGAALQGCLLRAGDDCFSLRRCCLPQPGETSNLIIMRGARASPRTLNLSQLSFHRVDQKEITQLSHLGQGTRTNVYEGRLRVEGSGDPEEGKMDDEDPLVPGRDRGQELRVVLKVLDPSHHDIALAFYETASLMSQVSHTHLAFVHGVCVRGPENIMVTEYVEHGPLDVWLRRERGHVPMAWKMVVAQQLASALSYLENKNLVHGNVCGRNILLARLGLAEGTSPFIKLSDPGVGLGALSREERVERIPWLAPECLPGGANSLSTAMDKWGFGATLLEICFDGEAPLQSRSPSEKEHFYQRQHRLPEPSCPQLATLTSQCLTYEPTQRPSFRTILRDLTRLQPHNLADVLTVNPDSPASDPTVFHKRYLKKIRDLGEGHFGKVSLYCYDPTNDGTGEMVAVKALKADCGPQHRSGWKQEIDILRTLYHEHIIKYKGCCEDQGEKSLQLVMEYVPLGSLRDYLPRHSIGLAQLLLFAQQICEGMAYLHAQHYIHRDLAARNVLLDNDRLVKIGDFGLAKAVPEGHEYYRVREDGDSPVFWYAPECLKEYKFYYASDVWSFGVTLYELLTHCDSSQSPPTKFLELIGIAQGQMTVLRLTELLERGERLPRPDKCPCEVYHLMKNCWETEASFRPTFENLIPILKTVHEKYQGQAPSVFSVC
Chain of Tyrosine-protein kinase Fyn (Homo sapiens) (P06241 2-537 limits assumed): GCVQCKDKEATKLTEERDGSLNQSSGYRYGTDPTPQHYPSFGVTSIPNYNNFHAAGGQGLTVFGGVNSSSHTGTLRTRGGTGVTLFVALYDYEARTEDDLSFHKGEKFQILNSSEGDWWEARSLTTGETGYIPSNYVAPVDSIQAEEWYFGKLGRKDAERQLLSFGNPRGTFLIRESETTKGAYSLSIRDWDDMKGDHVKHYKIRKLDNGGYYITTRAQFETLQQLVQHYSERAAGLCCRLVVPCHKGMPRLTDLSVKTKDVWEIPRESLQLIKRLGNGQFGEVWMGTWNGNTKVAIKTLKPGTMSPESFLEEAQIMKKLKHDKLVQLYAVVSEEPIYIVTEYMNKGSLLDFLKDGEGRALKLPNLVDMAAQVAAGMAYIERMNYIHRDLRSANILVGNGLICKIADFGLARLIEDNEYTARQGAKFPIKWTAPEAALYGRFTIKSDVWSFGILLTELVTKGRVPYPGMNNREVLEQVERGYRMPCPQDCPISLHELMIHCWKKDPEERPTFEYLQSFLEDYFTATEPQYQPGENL
Chain of Interleukin-1 receptor-associated kinase 1 (Homo sapiens) (P51617 whole entry, looked up): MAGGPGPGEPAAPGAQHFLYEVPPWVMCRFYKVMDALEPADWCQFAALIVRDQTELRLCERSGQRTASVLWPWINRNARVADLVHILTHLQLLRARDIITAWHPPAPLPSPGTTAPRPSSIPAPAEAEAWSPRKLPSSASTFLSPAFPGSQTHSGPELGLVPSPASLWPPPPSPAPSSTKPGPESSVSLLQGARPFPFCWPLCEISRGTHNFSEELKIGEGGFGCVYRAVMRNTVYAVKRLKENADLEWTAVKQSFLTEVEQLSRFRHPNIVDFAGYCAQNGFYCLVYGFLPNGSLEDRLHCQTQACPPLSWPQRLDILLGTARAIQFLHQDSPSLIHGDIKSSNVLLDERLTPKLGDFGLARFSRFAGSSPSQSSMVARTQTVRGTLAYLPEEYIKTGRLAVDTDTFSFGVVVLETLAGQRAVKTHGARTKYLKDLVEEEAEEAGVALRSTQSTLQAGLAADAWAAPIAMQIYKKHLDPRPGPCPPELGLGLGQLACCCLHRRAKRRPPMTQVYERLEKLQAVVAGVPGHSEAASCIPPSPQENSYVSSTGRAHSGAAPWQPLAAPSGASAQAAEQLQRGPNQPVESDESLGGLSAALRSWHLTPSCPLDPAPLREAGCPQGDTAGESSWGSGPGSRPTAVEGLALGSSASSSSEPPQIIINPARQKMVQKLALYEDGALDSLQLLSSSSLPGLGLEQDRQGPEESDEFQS

Work on `O=C(NOC[C@H](O)CO)c1ccc(F)c(F)c1Nc1ccc(I)cc1F` yielded a % of control [1] of 91%.

`CNC(=O)Nc1ccc(-c2nc(N3CC4CCC(C3)O4)c3cnn(C4CCC5(CC4)OCCO5)c3n2)cc1` gave a % of control [2] of 70%.

Work on `C=CC(=O)Nc1cccc(C(=O)Nc2ccc(Nc3cc(-c4[nH]c(SC)nc4C)ccn3)cc2)c1` yielded a % of control ([3]; at 1 µM) of 73% and a % of control ([3]; at 5 µM) of 50%.

`COc1cc(Nc2nc(C)cc(-c3cnn4nc(OC)ccc34)n2)cc(C(F)(F)F)c1` was tested, and the % of control [4] was 91%.

`Cc1cnc(Nc2ccc(F)cc2Cl)nc1-c1c[nH]c(C(=O)N[C@H](CO)c2cccc(Cl)c2)c1` showed a % of inhibition [5] of 41%.

`C=CC(=O)Nc1cc(-n2c(=O)ccc3cnc4ccc(-c5ccc(NS(C)(=O)=O)cc5)cc4c32)ccc1C` gave a % of control ([6]; at 1 µM) of 100% and a % of control ([6]; at 10 µM) of 75%.

With `O[C@H]1CC[C@H](Nc2ncc3nc(Nc4c(F)cc(F)cc4F)n([C@H]4CCOC4)c3n2)CC1` the % of control [7] was 81% and the % of control [8] was 100%.
